Data taken from US20070280938A1, “Peptides Derived from Natural Cytotoxicity Receptors and Methods of Use Thereof” (YISSUM RESEARCH AND DEVELOPMENT COMPANY OF THE HEBREW …, priority 2003, published 2007).
“Also recorded” adds a separate entry of the source.

Key:
[1] = target: T1, NKp46D2-Ig (Homo sapiens, UniProt O76036); test: Inhibition of NKp46D2-Ig binding to tumor cells by premixed saccharides (flow cytometry); conditions: for Inhibition of binding of NKp46D2-Ig to tumor cells: cell line not specified; for Inhibition of binding of NKp46D2-Ig: HeLa and PC-3, FIGS. 2B, 2C
T1 construct: residues 101-235 (D2) of the mature NKp46 protein were PCR amplified; CD5 leader peptide (with added Met start codon) (N); made in house
Method: (§1) Cells were incubated with the various fusion-Igs for 2 h at 4° C., washed and stained with FITC-conjugated-F(ab′)2-Goat-anti-human-IgG-Fcy (109-096-098, Jackson ImmunoResearch, West Grove, Pa.). Staining and washing buffer consisted of 0.5% (w/v) BSA and 0.05% sodium azide in PBS. Staining of CHO and mutant CHO cells was carried out with 2% FCS instead of bovine serum albumin (BSA) in the different buffers. Propidium iodide (PI) was added prior to reading for exclusion of dead cells. Flow cytometry was performed using a FACSCalibur flow cytometer (Becton Dickinson, Mountain View, Calif.). Data files were acquired and analyzed using BD CELLQuest™ 3.3 software.
(§2) For most binding inhibition experiments, 20 μg of fusion-Ig were premixed with the GAG and added to cells for staining as above. In all experiments, each sample was stained twice in different wells. When results are presented as MFI (median fluorescence intensity), average MFI∓SD of the duplicate staining is shown to reveal consistency of staining procedure. Human IgG1 (hIgG1 kappa, PHP010) was purchased from Serotec, Oxford, UK. Staining with the anti-heparin/heparan sulfate antibody HS4E4 was previously described (35).

[2] = target: T2, NKp30-Ig (Homo sapiens, UniProt O14931); test: Inhibition of NKp30-Ig binding to tumor cells by premixed saccharides (flow cytometry); conditions: cell line not specified
T2 construct: made in house
Method: as §1, §2

[3] = target: T3, LIR1-Ig (Homo sapiens, UniProt Q8NHL6); test: Effect of premixed saccharides on LIR1-Ig binding to HeLa cells (flow cytometry); conditions: Glyc-PAA mixed with Ig-fusion protein, FIG. 1A
T3 construct: made in house
Method: as §1, §2

[4] = target: T4, NKp30-Ig (Homo sapiens, UniProt O14931, P25L); test: Inhibition of NKp30-Ig binding to tumor cells by premixed saccharides (flow cytometry)
T4 construct: made in house
Method: as §1, §2

[5] = test system: HeLa cells; test: Lysis of HeLa cells by primary NK lines (cytotoxicity assay); format: cell-based, human; conditions: FIG. 6A
Method: The cytotoxic activity of NK lines against the various targets was assessed in 5-hr 35S-release assays and in 4-hr Eu release time-resolved fluorescence assays, as previously described (20). In experiments where carbohydrates were included, NK cells were first mixed with the carbohydrates and then added to target cells. […] Each point represents the average of duplicate/triplicate values.
To test the role of NKp46 and NKp30 recognition of carbohydrates in NK lysis, the lysis of HeLa cells by NKs in the presence of Glyc-PAA was studied.

[6] = test system: NKp30-Ig; test: Treatment of tumor cells (GAG-degrading enzymes, glycosylation or GPI-anchor blockers) then staining with NKp30-Ig; format: cell-based, human
Method: as §1
(§3) Tumor cells (10^6) were washed twice in PBS, resuspended in 1ml reaction buffer alone (mock) or reaction buffer containing one of the following GAG-degrading enzymes (Sigma): keratanase (0.94 u/ml, K-2876), heparin lyase I (1.56 u/ml, H-2519) and heparin lyase III (1.25 u/ml, H-8891). Reaction buffer consisted of 1% (w/v) BSA, 1 μg/ml leupeptin and 10 u/ml aprotinin in PBS. Cells were incubated with enzyme for 60 min at 37° C., washed two times with PBS and stained with fusion-Igs as above.
(§4) The involvement of cell membrane-associated GAGs in the binding of NKp46D2-Ig and NKp30-Ig to their cellular ligands was examined. […]

[7] = test system: NKp46D2-Ig; test: Treatment of tumor cells (GAG-degrading enzymes, glycosylation or GPI-anchor blockers) then staining with NKp46D2-Ig; format: cell-based, human
Method: as §1, §3, §4

[8] = test system: EB-SP; test: Staining of EB-SP cells expressing cell-surface heparanase with fusion-Igs; format: binding, murine; conditions: as compared to parental EB or EB-mock transfected
Method: as §1
The EB T lymphoma cell line and EB-SP cells that express a functional heparanase on the cell surface (16) were stained with NKp46D2-Ig. […] An alternative interpretation is that the binding is to a cell-surface molecule associated with heparan sulfate. […] Membrane-associated heparan sulfate proteoglycans (HSPGs) can be divided into two families: glypicans, which are attached to the plasma membrane via glycosylphosphatidylinositol (GPI) anchors, and syndecans, which are transmembrane proteins (23). The involvement of GPI-anchored proteins in the binding of NKp30-Ig and NKp46D2-Ig to tumor cells was examined. Treatment of cells with D-mannosamine (white bars) inhibits GPI-anchor formation.

[9] = test system: HeLa cells; test: Staining of HeLa cells with fusion-Igs (flow cytometry); format: binding, human
Method: as §1

[10] = test system: mutant CHO cells lacking HSPG; test: Binding to mutant CHO cells lacking HSPG; conditions: as compared to wt CHO cells; FIG. 7A
Method: as §1
To further test the role of NKp46 and NKp30 recognition of carbohydrates in NK lysis, the lysis of CHO mutants lacking HSPG was examined. […] Thus, reduction in binding of NKp46-D2-Ig and NKp30-Ig to tumor cells lacking HSPG is correlated with reduced lysis of these cells by NK cells.

[11] = test system: IV-infected cells; test: Binding of wild type and mutated NKp46D2 fusion proteins to IV-infected cells; conditions: FIG. 10
Method: as §1
Based on the observations described above, certain site-directed mutations were made in NKp46D2 (Lys 157, Arg 160, His 163 and Arg 166; 4 point mutations) or (Lys 157, Arg 160, His 163, Arg 166, and Lys 170; 5 point mutations) into hydrophilic, neutral, amino acids with residues of similar size and to compare the ability of the mutant and the wild type receptors to bind heparin/heparan sulfate. Two constructs were prepared: Q4 (K157Q, R160Q, H163Q, and R166Q) and Q4T1 (K157Q, R160Q, H163Q, R166Q, and K170T). The mutated referred to herein as SEQ ID NO:29 SEQ ID NO:30.. Corresponding fusion proteins were prepared (NKp46D2-Q4-Ig and NKp46D2-Q4T1-Ig) and compared to NKp46D2-Ig.

[12] = Glyc-PAA mixed with Ig-fusion protein, HeLa cells, FIG. 1A
[13] = Glyc-PAA premix, inconsistent inhibition phenotype
[14] = HeLa cells pretreated with 40mM D-mannosamine overnight, FIG. 4D
[15] = tumor cells treated before staining

T2 sequence (O14931 with tags, fused parts or gaps P25L): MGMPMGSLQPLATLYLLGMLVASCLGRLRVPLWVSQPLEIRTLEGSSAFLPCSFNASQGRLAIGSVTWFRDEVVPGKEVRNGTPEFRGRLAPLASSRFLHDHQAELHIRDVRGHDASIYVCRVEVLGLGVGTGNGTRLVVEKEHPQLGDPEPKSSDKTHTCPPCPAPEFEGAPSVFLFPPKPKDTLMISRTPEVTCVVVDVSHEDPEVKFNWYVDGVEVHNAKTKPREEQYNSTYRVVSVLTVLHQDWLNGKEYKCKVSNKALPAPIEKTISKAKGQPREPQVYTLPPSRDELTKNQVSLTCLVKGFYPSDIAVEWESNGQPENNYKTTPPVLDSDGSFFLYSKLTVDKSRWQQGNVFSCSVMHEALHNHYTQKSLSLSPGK
T1 sequence (O76036 with tags, fused parts or gaps isoform O76036-6): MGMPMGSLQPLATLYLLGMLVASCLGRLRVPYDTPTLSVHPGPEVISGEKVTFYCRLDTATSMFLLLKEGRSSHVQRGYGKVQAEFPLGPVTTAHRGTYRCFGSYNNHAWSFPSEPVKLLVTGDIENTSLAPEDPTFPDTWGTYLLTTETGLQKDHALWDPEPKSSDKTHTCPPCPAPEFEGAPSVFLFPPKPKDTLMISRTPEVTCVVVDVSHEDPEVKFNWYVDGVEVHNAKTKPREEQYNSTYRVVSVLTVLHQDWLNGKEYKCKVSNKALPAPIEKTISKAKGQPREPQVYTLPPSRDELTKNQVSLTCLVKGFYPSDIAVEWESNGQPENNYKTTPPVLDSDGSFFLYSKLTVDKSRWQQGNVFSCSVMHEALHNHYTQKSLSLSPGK
T4 sequence (O14931 with tags, fused parts or gaps P25L): as the sequence (O14931 with tags, fused parts or gaps P25L) above
T3 sequence (Q8NHL6 with tags, fused parts or gaps limits assumed): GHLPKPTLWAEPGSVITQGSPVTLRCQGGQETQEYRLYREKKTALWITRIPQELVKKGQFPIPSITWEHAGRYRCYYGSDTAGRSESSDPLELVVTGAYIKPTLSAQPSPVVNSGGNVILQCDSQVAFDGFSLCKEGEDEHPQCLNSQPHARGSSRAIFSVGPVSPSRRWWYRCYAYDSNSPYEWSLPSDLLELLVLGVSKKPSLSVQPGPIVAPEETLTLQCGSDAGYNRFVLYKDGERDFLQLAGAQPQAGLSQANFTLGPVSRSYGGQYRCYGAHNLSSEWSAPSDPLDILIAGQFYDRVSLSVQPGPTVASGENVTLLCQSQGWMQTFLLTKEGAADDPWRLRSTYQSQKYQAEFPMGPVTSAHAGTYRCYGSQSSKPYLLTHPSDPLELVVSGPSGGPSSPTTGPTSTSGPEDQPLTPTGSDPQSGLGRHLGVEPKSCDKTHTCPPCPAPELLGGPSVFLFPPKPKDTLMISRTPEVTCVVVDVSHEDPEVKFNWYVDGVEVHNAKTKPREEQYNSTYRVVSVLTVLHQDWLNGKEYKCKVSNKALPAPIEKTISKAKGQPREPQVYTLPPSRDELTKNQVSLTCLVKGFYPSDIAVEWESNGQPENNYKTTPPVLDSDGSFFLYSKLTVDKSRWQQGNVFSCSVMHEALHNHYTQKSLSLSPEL

In the case of 3′-O-sulfo-LacNAc, the “Inhibition of binding of NKp46D2-Ig to tumor cells” value [1] is reported as “did not inhibit binding” and the “Inhibition of binding of NKp30-Ig to tumor cells” value [2] is reported as “did not inhibit binding”.

With 4 ′, 6′-di-O-sulfo-LacNAc the “Inhibition of binding of NKp46D2-Ig to tumor cells” value [1] was “did not inhibit binding” and the “Inhibition of binding of NKp30-Ig to tumor cells” value [2] was “did not inhibit binding”.

For 6-O-sulfo-LacNAc-PAA, the “Inhibition of binding of NKp46D2-Ig to HeLa cells” value [1, 12] was “inhibited binding”, the “Effect on binding of the fusion proteins after pre-incubation of the cells” value ([1]; cells pre-incubated with the saccharide, followed by wash and application of the fusion proteins) was “did not affect the binding” and the “Inhibition of binding of LIR1-Ig to HeLa cells” value [3] was “not the positive binding of LIR1-Ig”. For the same molecule, the “Inhibition of binding of NKp30-Ig to HeLa cells” value [4, 12] was “inhibited”, the “Reduction of lysis of HeLa cells by NK” value ([5]; 0.9 mM) was “significant reduction of lysis” and the “Reduction of lysis of HeLa cells by NK” value ([5]; agent present during lysis assay, Glyc-PAA 0.225 to 0.9 mM, E:T 50:1, 4 h) was “two fold”.

6′-O-sulfo-LacNAc was tested, and the “reduction in binding of NKp46D2-Ig” value [1, 13] was “up to 25%” and the “reduction in binding of NKp30-Ig” value [4, 13] was “up to 25%”.

In the case of `N[C@@H]1C(O)O[C@H](CO)[C@@H](O)[C@@H]1O` (stereo partly drawn) [D-mannosamine], the “Reduction of binding of NKp30-Ig” value [6, 14] is reported as 2 fold and the “Reduction of binding of NKp46D2-Ig” value [7, 14] is reported as 4 fold.

For `CC(=O)N[C@H]1[C@@H](OCc2ccccc2)O[C@H](CO)[C@H](O)[C@@H]1O` [abenzyl-GalNAc], the “Effect of cell treatment on binding of NKp30-Ig” value [6, 15] was “significantly reduced the binding” and the “Effect of cell treatment on binding of NKp46D2-Ig” value [7, 15] was “significantly reduced the binding”.

N-desulfated heparin was tested, and the “Inhibition of NKp46D2-Ig binding by modified heparins” value ([1]; heparins modified in sulfation or acetylation, HeLa cells, FIG. 2D) was “potent inhibitor”.

For heparan sulfate, the “Inhibition of binding of NKp46D2-Ig” value ([1]; 0.1 μg/ml) was “inhibit binding”, the “Inhibition of binding of NKp46D2-Ig to tumor cells” value [1] was “directly inhibits the binding; also recorded: potent inhibitors” and the “Inhibition of binding of NKp30-Ig to tumor cells” value [2] was “directly inhibits the binding; also recorded: potent inhibitors”.

hyaluronic acid was tested, and the “Inhibition of binding of NKp46D2-Ig” value ([1]; incremental concentrations up to 10 μg/ml) was “did not inhibit binding”.

B1: NKp30-Ig: protein conjugate comprising CD5 leader sequence and NKp30 D domain fused to Fc domain (protein)
chain: MAWRALHPLLLLLLLFPGSQAQSKAQVLQSVAGQTLTVRCQYPPTGSLYEKKGWCKEASALVCIRLVTSSKPRTMAWTSRFTIWDDPDAGFFTVTMTDLREEDSGHYWCRIYRPSDNSVSKSVRFYLVVSPASASTQTPWTPRDLVSSQTQTQSCVPPTAGARQAPESPSTIPVPSQPQNSTLRPGPAAPIALVPVFCGLLVAKSLVLSALLVWWGDIWWKTVMELRSLDTQKATCHLQQVTDLPWTSVSSPVEREILYHTVARTKISDDDDEHTL
modifications: homo sapiens
For B1, the “Staining of EB-SP compared with EB” value [8] was “same phenotype”, the “Binding to HeLa cells” value [9] was “bound well” and the “Binding to mutant CHO cells lacking HSPG” value [10] was “significantly reduced”.

B2: NKp46D2-Ig: truncated fusion protein: D2 of NKp46 with CD5 leader fused to Fc portion of human IgG1 (protein)
chain: MAWMLLLILIMVHPGSCALWVSQPPEIRTLEGSSAFLPCSFNASQGRLAIGSVTWFRDEVVPGKEVRNGTPEFRGRLAPLASSRFLHDHQAELHIRDVRGHDASIYVCRVEVLGLGVGTGNGTRLVVEKEHPQLGAGTVLLLRAGFYAVSFLSVAVGSTVYYQGKCLTWKGPRRQLPAVVPAPLPPPCGSSAHLLPPVPGG
modifications: homo sapiens
For B2, the “Binding to IV-infected cells” value [11] was “bind similarly”, the “Reduction of staining of EB-SP” value ([8]; FIG. 4C) was 50% and the “Binding to HeLa cells” value [9] was “bound well”. For the same molecule, the “Binding to mutant CHO cells lacking HSPG” value [10] was “significantly reduced”.
